# According to patent EP4385495A1, “NANOSYSTEMS FOR THE ENCAPSULATION OF THERAPEUTIC AGENTS” (National Technical University of Athens, priority 2022, dated 2024):
# Experiments:
# CCK-8 viability assay = assay type: cell-based; conditions: human, primary human chondrocytes; 1 µM, 72h; positive control set to 100; read-out: Mean % relative viability
# Experimental: b) The viability of human primary chondrocytes was evaluated following incubation with increasing concentrations of either the pure Naringin (S1) or the nanosystems (Samples S2 and S3) at 2-10-50µM of encapsulated Naringin (1:5 serial dilutions) for 72h (higher concentrations were not used because the nanosystems become insoluble and aggregates sediment on the cell monolayer). For S2 this corresponded to 6,4 µg/ml (for 2 µM of Naringin), 32 µg/ml (for 10 µM of Naringin) and 158 µg/ml (for 50 µM of Naringin) respectively, of total NP concentration. For S3 (CS[PLA[NAR]]) the total NP concentrations to provide the same µM of encapsulated Naringin were 14,4 / 72 / 360 µg/m). As control for the nanosystems, a blank PLA nanoparticle preparation coated with chitosan (S4) was used, at the same µg/ml polymer concentration like the ones used to achieve the 2-10-50µM range for Naringin (the difference being that the blank contains no Naringin). Finally, the blank S4 was used at the 14,4/72/360 µg/ml concentration range (1:5 serial dilutions). Following incubation, the CCK-8 viability kit was used according to manufacturer's instructions (Sigma, 96992-500TESTS-F). Macroscopical and microscopical observation confirmed the proper complete solubility and dispersion of the Nanoparticles. Importantly, healthy cell morphology was observed (spindle-like attached cells with several processes) with concomitant absence of undissolved material.
# Table 5. Effect of the natural products and the nanosystems on the relative cell viability of primary human chondrocytes. Measurements obtained using the CCK-8 viability kit. Values normalized to positive control (PC; set to 100; arbitrary unit). Samples' coding: S1= pure Naringin, S2=Naringin encapsulated in PLA nanoparticles [PLA[NAR]], S3=Naringin encapsulated in PLA nanoparticles coated with chitosan CS[PLA[NAR]], and S4=Blank PLA nanoparticles coated with chitosan, CS(PLA[---]].
# [1] = Body weight in collagenase-induced osteoarthritis rat model; assay type: in vivo, Wistar rats
# Experimental: (§1) In order to understand the anti-inflammatory and antioxidant potential of the nanoparticles of the invention in vivo an experimental animal model of osteoarthritis (OA) was established. The OA lesions were caused by matrix degradation of articular cartilage using enzymatic means, such as collagenase type-II. Following the induction of osteoarthritis, the studied nanoparticles were administered for 8 weeks in which period the morphological and behavioral changes were measured and finally histological analysis of the articular cartilage samples concluded the in vivo study.
# (§2) Rats were anesthetized with chloral hydrate. The right knee joints of Group I were injected with normal saline solution and served as a control. Animals from the groups II, III, IV, V, VI, VII were injected with collagenase type II (Clostridium histolyticum). Collagenase (125 collagen digestion unit/mg) was dissolved in saline, and it was injected intra-articularly into the right knee joint twice on days 1 and 4 of the experiment (Al-Saffar, F., H. Ganabadi and S. Fakurazi. Collagenase and sodium iodoacetate-induced experimental osteoarthritis model in Sprague dawley rats. Asian J. Sci. Res. 2: 1-13, 2009). The left knees of all animals were left untreated as a control.
# (§3) Changes in body weight and knee diameter were measured on the 1st, 4th,11th,21st,31st,41st,51st, 61st, 71st day before every injection. Knee diameter was measured using a digital caliper. […] A change in body weight is also measured as one of the parameters to assess the course of the disease in the OA animal models.
# [2] = tested on: experimental animal model of osteoarthritis (OA); test: Knee diameter (digital caliper) and gross observations in collagenase-induced osteoarthritis rat model; assay type: in vivo, Wistar rats; conditions: for Right knee diameter: collagenase-injected knee; for Left knee diameter: untreated control knee
# Experimental: as §1, §2, §3
# [3] = tested on: experimental animal model of osteoarthritis (OA); test: von Frey mechanical allodynia test in osteoarthritis rat model; assay type: in vivo, Wistar rats; conditions: for Paw Withdrawal Threshold (%): right paw/(right paw + left paw)*100
# Experimental: Healthy adult male Wistar rats (150-200 g) were used for the study, with water and food ad libitum, at a constant temperature of 22°C and controlled lighting (12 h light/12 h dark cycle). […] As far as the dispersion procedure of the injectables is concerned, all the natural compounds were dissolved in saline solution, whereas the studied nanoparticles were mechanically grinded in a mortar and pestle set with saline solution and Tween 20 (2% w/v) and heated at 36 °C before each treatment. There were six treatments administered every 10 days. At the end of the experiment rats were euthanized and both knees were collected for histological analysis. Rats were anesthetized with chloral hydrate. The right knee joints of Group I were injected with normal saline solution and served as a control. Animals from the groups II, III, IV, V, VI, VII were injected with collagenase type II (Clostridium histolyticum). Collagenase (125 collagen digestion unit/mg) was dissolved in saline, and it was injected intra-articularly into the right knee joint twice on days 1 and 4 of the experiment ([…] and S. Fakurazi. Collagenase and sodium iodoacetate-induced experimental osteoarthritis model in Sprague dawley rats. Asian J. Sci. Res. 2: 1-13, 2009). The left knees of all animals were left untreated as a control. For the evaluation of the effectiveness and time of release of the encapsulated compounds, all animals were subjected to a series of behavioral testing in addition to the measurements of body weight and knees diameter change. The experimental protocol of the present study followed the combination of three different behavioral tests, which are von Frey mechanical allodynia test, grid walking and slope walking test. Behavioral tests are performed in three phases, at the beginning before the start of treatment, in the middle of treatment (approximately 35-40 days) and at the end (after the 70th day). Mechanical allodynia was tested by the von Frey method which detects pain threshold as the paw withdrawal response. For the testing, rats were placed into plastic chambers that allow access to the plantar surface of the hind paws. […] In Table 15 below, the nociceptive threshold is defined as: nociceptive threshold (%) = ([…])/((nociceptive; threshold on right paw + nociceptive threshold of left paw))*100 [formula] Table 13: von Frey-paw withdrawal threshold (g)
# [4] = tested on: experimental animal model of osteoarthritis (OA); test: Grid-walking test in osteoarthritis rat model; assay type: in vivo, Wistar rats
# Experimental: as §2
# In this test the rats were allowed to explore freely for 4 minutes in a wire grid and when one of the limbs fell below the grid surface during free walking, the observer counted the number of foot-fault errors (footslips) (Starkey, M. L., Barritt, A. W., Yip, P. K., Davies, M., Hamers, F. P. T., McMahon, S. B., & Bradbury, E. J. (2005). Assessing behavioural function following a pyramidotomy lesion of the corticospinal tract in adult mice. Experimental Neurology, 195(2), 524-539. doi:10.1016/j.expneurol.2005.0).
# [5] = tested on: experimental animal model of osteoarthritis (OA); test: Slope walking test in osteoarthritis rat model; assay type: in vivo, Wistar rats
# Experimental: as §2
# Walking on an inclined plane was used for the clinical assessment of motor function in rats after induction of OA. The method consists of placing the animal on an inclined plane and then measuring the time (seconds) needed for the animals to go up the walking tray.
# RAW264.7 cells = test: MTT cell viability assay; assay type: cell-based, mouse; conditions: 24h
# Source text: The MTT (3-[4,5-dimethylthiazol-2-yl]-2,5 diphenyl tetrazolium bromide) assay is based on the ability of viable cells with active metabolism to convert the yellow MTT to a purple formazan product, which determines mitochondrial activity. The MTT formazan product agglomerates as an insoluble residuum within the cells, which can be solubilized (in this protocol with DMSO) for homogeneous measurement. Thus, any increase or decrease in the number of viable cells can be detected by measuring the formazan concentration reflected in the optical density (OD) measurement at 540 nm with a reference absorption of 720 nm. This assay is broadly used to measure the in vitro cytotoxic effects of drugs on cell lines or primary cells. For the experimental procedure a standard solution of MTT 1mg/mL in PBS was prepared which after filtration ([…] filter (Millipore, Carrigtwohill, Ireland)) was stored in the dark (4-8 °C) until use. In brief, RAW 264.7 cells were seeded in a 96-well plate at a density of 30.000 cells/ in 100 µL of medium per well. […] This was followed by incubation for 24 h, 48 h and 72 h. At the end of the incubation 10 µL of MTT was added to each well followed by incubation for 4 hours, for the formation of the formazan crystals. The formazan crystals were then dissolved by adding DMSO and stirring lightly for 30 min, after which the absorbance was measured in a plate reader at 540 nm with a reference absorbance of 720 nm. […] Table 4: % cell viability after treatment of RAW264.7 cells with the samples
# [6] = 1st injection CO/saline (before treatment)
# [7] = 2nd injection CO/saline (before treatment)
# [8] = 70 days (end of experimental protocol)
smiles,measurement,setting,value
"CC(C)Cc1ccc(C(C)C(=O)O)cc1 (centres unmarked) [IBUPROFEN, ibuprofen]","viability at 72 h, 1 µM",CCK-8 viability assay,100%
same,Body Weight (BW),[1]; [6],234 g
same,Body Weight (BW),"[1]; 1st treatment, 10 mg/kg (S1, ibuprofen i.p.; nanoparticles i.a.), every 10 days",245 g
same,Body Weight (BW),[1]; [7],230 g
same,Body Weight (BW),"[1]; 2nd treatment, 10 mg/kg (S1, ibuprofen i.p.; nanoparticles i.a.)",276 g
same,Body Weight (BW),"[1]; 3rd treatment, 10 mg/kg (S1, ibuprofen i.p.; nanoparticles i.a.)",296 g
same,Body Weight (BW),"[1]; 4th treatment, 10 mg/kg (S1, ibuprofen i.p.; nanoparticles i.a.)",303 g
same,Body Weight (BW),"[1]; 5th treatment, 10 mg/kg (S1, ibuprofen i.p.; nanoparticles i.a.)",308 g
same,Body Weight (BW),"[1]; 6th treatment, 10 mg/kg (S1, ibuprofen i.p.; nanoparticles i.a.)",313 g
same,% Changes in Body Weight (BW),[1]; 11 days (before treatment),"4,7%"
same,% Changes in Body Weight (BW),[1]; [8],"40,2%"
same,Body Weight (BW),"[1]; final, 10 mg/kg (S1, ibuprofen i.p.; nanoparticles i.a.)",328 g
same,% Changes in Left knee diameter,[2]; 11 days (before treatment),"0,02%"
same,% Changes in Right knee diameter,[2]; 11 days (before treatment),"0,91%"
same,% Changes in Left knee diameter,[2]; [8],"0,44%"
same,% Changes in Right knee diameter,[2]; [8],"0,37%"
same,Right knee diameter,[2]; [6],"0,8128 cm"
same,Right knee diameter,"[2]; 1st treatment, 10 mg/kg (S1, ibuprofen i.p.; nanoparticles i.a.)","0,8202 cm"
same,Right knee diameter,[2]; [7],"0,8192 cm"
same,Right knee diameter,[2]; 3rd treatment,"0,8172 cm"
same,Right knee diameter,[2]; 4th treatment,"0,8174 cm"
same,Right knee diameter,[2]; 5th treatment,"0,817 cm"
same,Right knee diameter,[2]; 6th treatment,"0,816 cm"
same,Right knee diameter,[2]; final,"0,8158 cm"
same,Left knee diameter,[2]; 1st injection CO/saline,"0,8158 cm"
same,Left knee diameter,[2]; 1st treatment,"0,816 cm"
same,Left knee diameter,[2]; 2nd injection CO/saline,"0,816 cm"
same,Left knee diameter,[2]; 4th treatment,"0,8184 cm"
same,Left knee diameter,[2]; final,"0,8194 cm"
same,von Frey-paw withdrawal threshold,[3]; 11 days (before treatment),"59,78 g"
same,von Frey-paw withdrawal threshold,"[3]; 70 days (end of experimental protocol), 10 mg/kg (S1, ibuprofen i.p.; nanoparticles i.a.)","83,8 g"
same,von Frey-paw withdrawal threshold,[3]; left-control paw,"93,9 g"
same,Paw Withdrawal Threshold (%),[3]; 11 days (before treatment),"38,90%"
same,Paw Withdrawal Threshold (%),[3]; [8],"45,44%"
same,Foot fault in grid-walk test (4 min),[4]; 11 days left paw,"1,4"
same,Foot fault in grid-walk test (4 min),[4]; 11 days right paw,"2,8"
same,Foot fault in grid-walk test (4 min),[4]; 40 days left paw,"1,8"
same,Foot fault in grid-walk test (4 min),[4]; 40 days right paw,"1,2"
same,Foot fault in grid-walk test (4 min),[4]; 70 days left paw,1
same,Foot fault in grid-walk test (4 min),[4]; 70 days right paw,1
same,Slope Walking,[5]; 11 days (before treatment),"9,8 sec"
same,Slope Walking,[5]; [8],"8,9 sec"
"COc1cc(C2Oc3cc([C@H]4Oc5cc(O)cc(O)c5C(=O)[C@@H]4O)ccc3OC2CO)ccc1O (some centres unmarked) [PC (Silibinin), silibinin]",% cell viability,RAW264.7 cells; 25 µM,30%
same,% cell viability,RAW264.7 cells; 50 µM,20%
